Test results taken from patent US5235045A, “Non-azo naphthalimide dyes” (priority 1992, dated 1993).
Where two headings read alike, the source gives them in different places.

Key:
[1] = test system: H9 cells; assay: Uptake into living H9 cells; type: cell-based, human; settings: for rate constant for uptake: 10% fetal calf serum
Experimental: For measurement, the pellet was diluted in 3 ml PBS+0.1% CTAB immediately prior to fluorescence measurement. Fluorescence measurements were made using an excitation wavelength of 451 nm, and an emission wavelength of 526 nm.
The protocol used is as above in (1), modified as below for those experiments in the presence of colchicine: Colchicine (1 mg/ml) was added to H9 cells at 5×10^.ident. cells/ml, and incubated for 1 hour. The cells were centrifuged, fresh medium was added, and 1b (25 μM) was added. Samples were taken at 0, 2, and 4 hours.

[2] = test system: Human immunodeficiency virus (HIV); assay: Effect of DiEd6Br and light on HIV (MTT viability of MT-4 cells); type: cell-based; settings: for Optical Density (MTT, MT-4 cells): mean of triplicate, 570 nm
[3] = Tissue bonding of beef muscle strips with DiEd6Br and light; settings: 0.1 millimolar
Source text: (§1) Bonding together of the overlapping surfaces of two strips of swine dura mater and of two thin slices of beef muscle with application of DiEd6Br in Cremophor EL as a carrier and irradiation with 420 # 5 nm light filtered from a xenon arc lamp were studied.
Thin strips approximately 10 cm long, 1 cm wide, and 0.05-0.1 cm thick were sliced from beef steak obtained from a local meat market. Surfaces of the strips of two sample pairs were coated with a stock solution of DiEd6Br in Cremophor EL (0.1 millimolar concentration) and placed together to give approximately 2 cm overlap. One overlapping strip sample was irradiated for 24 hours with water-filtered (IR spectrum absorber) light from a 150 w xenon arc lamp. Beam diameter incident on the sample was approximately 3 cm. The other sample was wrapped in aluminum foil, placed alongside the irradiated sample, and served as dark control.

[4] = test system: various individual protein preparations; assay: Protein cross-linking with DiEd6Br and light (gel electrophoresis, general); type: biochemical
Source text: Concomitant with the appearance of the heavier species with photoillumination with the decrease in intensity of electromigrated bands of the initially present protein.

[5] = test system: Herpes simplex virus type 1; assay: Effect of DiEd6Br and light on aqueous suspensions of HSV-1 (plaque assay); type: cell-based, MacIntyre strain
[6] = test system: F-actin polymers of G-actin; assay: Protein crosslinking with DiEd6Br: F-actin; type: biochemical; settings: 40.0 μM, 400 J/cm^2
[7] = Tissue bonding of swine dura mater with DiEd6Br and light
Source text: as §1
Strips approximately 3×0.5 cm in dimension were cut from freshly harvested swine cranial dura mater, washed with 70% ethanol/water and blotted to dryness with standard chemical filter paper. External faces of each member of two pairs of strips were coated with a stock solution of Cremophor EL saturated at room temperature with DiEd6Br (approximately 2.5 millimolar), overlapped 1 cm with long axes parallel, and clamped between two Pyrex glass slides with edges of the slide-tissue-slide sandwich sealed with Parafilm. One sample was irradiated with 420 # 5 nm light of 25 mW/cm^2 irradiance for […]. at room temperature to give a total light fluence of approximately 1800 J/cm^2. The companion sample was wrapped in aluminum foil for light shielding and placed alongside the irradiated sample for the duration of the experiment.
Following their respective irradiation or being held in the dark in similar temperature ambience, one end of a strip of each sample was clamped and from the other a Styrofoam container was hung by a clamp and fine suspension wires (weight of clamp plus container plus wires=33.3 gm). Weights (10 gm each) were added gently in a sequential fashion to give a total weight of 296.3 gm upon which the strip is separated at their interface within the overlapped region of the irradiated sample. Strips of the un-irradiated sample separated immediately at their interface under the 33.3 gm loading of the "weighing" container. […] Elongation was approximately 50% at shearing of the interface.

[8] = test system: H9 cells; assay: Effects on H9 cells of Ed6Br with prior activation by 420 nm light (Trypan Blue); type: cell-based; settings: Homo sapiens, H9, 24 h, read-out: % Viable Cells
[9] = test system: cytochrome c; assay: Effect of irradiation on membrane-bound protein function: oxidation of vesicle-bound cytochrome c by CO(phen)3^3+; type: biochemical; settings: 1×10^-7 M dye, irradiated; pH 7.5, 20° C.; without dye 25±1
Experimental: Cytochrome C, a mitochondrial protein which is peripherally associated with membranes was studied as a model for the effect of photomodification of the membrane lipids on protein function. At pH 7.5 and 20° C., the rate of oxidation of vesicle-bound cytochrome c (7×10^-6 M) by CO(phen)3^3 + was 25±1 s^-1. Upon addition of Compound VII (1×10^-7 M) to the vesicles containing reduced cytochrome c, and subsequent irradiation as described above, the rate constant for oxidation of the bound cytochrome c under the same conditions was reduced to 2±1 s^-1.

With `CCCCCCNc1ccc2c3c(cccc13)C(=O)N(CCCCCC)C2=O` [Compound 1b, 4-(hexyl)amino-N-hexyl-1,8-naphthalimide] the “rate constant for uptake” value ([1]; 1 μM, 4° C.) was 3.5 ± 0.6 × 10^-4 s^-1, the “rate constant for uptake” value ([1]; 1 μM, 37° C.) was 3.6 ± 1.7 × 10^-4 s^-1 and the “rate constant for uptake” value ([1]; 5 μM, 4° C.) was 2.7 ± 1.0 × 10^-4 s^-1. For the same compound, the “rate constant for uptake” value ([1]; 5 μM, 37° C.) was 3.3 ± 0.7 × 10^-4 s^-1, the “rate constant for uptake” value ([1]; 25 μM, 4° C.) was 2.3 ± 0.9 × 10^-4 s^-1 and the “rate constant for uptake” value ([1]; 25 μM, 37° C.) was 2.5 ± 0.3 × 10^-4 s^-1. For the same compound, the “total uptake in presence of colchicine” value ([1]; 25 μM, colchicine pre-incubated 1 hour) was “decreased” and the “slope of log/log plot of fluorescence vs. time, presence and absence of colchicine” value ([1]; after 2 hours, 25 μM) was “essentially the same slope”.

With `CCCCCCN1C(=O)c2cccc3c(NCCNC(=O)CCCCC(=O)NCCNc4c(Br)cc5c6c(cccc46)C(=O)N(CCCCCC)C5=O)c(Br)cc(c23)C1=O` [Compound XLIV] the “Optical Density (MTT, MT-4 cells)” value ([2]; 1.25 μM, 0 J/cm^2) was 0.541, the “Optical Density (MTT, MT-4 cells)” value ([2]; 1.25 μM, 20 J/cm^2) was 1.242 and the “Optical Density (MTT, MT-4 cells)” value ([2]; 2.5 μM, 0 J/cm^2) was 0.290. The “Optical Density (MTT, MT-4 cells)” value ([2]; 2.5 μM, 20 J/cm^2) was 1.309, the “Optical Density (MTT, MT-4 cells)” value ([2]; 5 μM, 0 J/cm^2) was 0.559 and the “Optical Density (MTT, MT-4 cells)” value ([2]; 5 μM, 20 J/cm^2) was 1.337. For the same compound, the “inactivation of HIV” value ([2]; 1.25 mM or greater (so in the source), light treated) was “essentially complete inactivation of HIV”, the bonding of strips ([3]; dark control) was “separated under their own weight” and the bonding of strips ([3]; irradiated 24 hours) was “discernable tactile finger pressure was felt when two hands were used to pull the irradiated strip apart, indicating bonding of the strip surface”. For the same compound, the “heavier molecular species in absence of light” value ([4]; no light) was “complete absence of these species”, the heavier molecular species ([4]; photoirradiation nominally 420 nm) was “formation of slower electromigrating, thus heavier, molecular species” and the PFU/ml ([5]; 2.5 μM, not irradiated) was 1.3 × 10^6 PFU/ml. The PFU/ml ([5]; 10 μM, not irradiated) was 1.2 × 10^6 PFU/ml, the PFU/ml ([5]; .156 μM, not irradiated) was 1.1 × 10^6 PFU/ml and the PFU/ml ([5]; .625 μM, not irradiated) was 1.0 × 10^6 PFU/ml. It also gave a log reduction at 2.5 µM ([5]; Human alphaherpesvirus 1, light or radiation study, 2.5 μM, not irradiated, read-out: Log10 Reduction) of 0, a log reduction at 10 µM ([5]; Human alphaherpesvirus 1, light or radiation study, 10 μM, not irradiated, read-out: Log10 Reduction) of 0.0348 and a log reduction at 0.156 µM ([5]; Human alphaherpesvirus 1, light or radiation study, .156 μM, not irradiated, read-out: Log10 Reduction) of 0.0725. For the same compound, the log reduction at 0.625 µM ([5]; Human alphaherpesvirus 1, light or radiation study, .625 μM, not irradiated, read-out: Log10 Reduction) was 0.114, the log reduction at 2.5 µM ([5]; Human alphaherpesvirus 1, light or radiation study, Test #1, 2.5 μM, 20 J/cm2, 420 nm, read-out: Log10 Reduction) was 6 and the log reduction at 10 µM ([5]; Human alphaherpesvirus 1, light or radiation study, Test #1, 10 μM, 20 J/cm2, 420 nm, read-out: Log10 Reduction) was 6. The log reduction at 0.156 µM ([5]; Human alphaherpesvirus 1, light or radiation study, Test #1, .156 μM, 20 J/cm2, 420 nm, read-out: Log10 Reduction) was 6, the log reduction at 0.625 µM ([5]; Human alphaherpesvirus 1, light or radiation study, Test #1, .625 μM, 20 J/cm2, 420 nm, read-out: Log10 Reduction) was 6 and the log reduction at 0.0099 µM ([5]; Human alphaherpesvirus 1, light or radiation study, Test #2, .0099 μM, 20 J/cm2, 420 nm, read-out: Log10 Reduction) was 3.27. It also gave a log reduction at 0.0195 µM ([5]; Human alphaherpesvirus 1, light or radiation study, Test #2, .0195 μM, 20 J/cm2, 420 nm, read-out: Log10 Reduction) of 4.24, a log reduction at 0.039 µM ([5]; Human alphaherpesvirus 1, light or radiation study, Test #2, .039 μM, 20 J/cm2, 420 nm, read-out: Log10 Reduction) of 4.87 and a log reduction at 0.078 µM ([5]; Human alphaherpesvirus 1, light or radiation study, Test #2, .078 μM, 20 J/cm2, 420 nm, read-out: Log10 Reduction) of 5.87. For the same compound, the log reduction at 0.156 µM ([5]; Human alphaherpesvirus 1, light or radiation study, Test #2, .156 μM, 20 J/cm2, 420 nm, read-out: Log10 Reduction) was 5.87, the PFU/ml ([5]; Test #1, 2.5 μM, 20 J/cm2, 420 nm) was 0 PFU/ml and the PFU/ml ([5]; Test #1, 10 μM, 20 J/cm2, 420 nm) was 0 PFU/ml. The PFU/ml ([5]; Test #1, .156 μM, 20 J/cm2, 420 nm) was 0 PFU/ml, the PFU/ml ([5]; Test #1, .625 μM, 20 J/cm2, 420 nm) was 0 PFU/ml and the PFU/ml ([5]; Test #2, .0099 μM, 20 J/cm2, 420 nm) was 4.0 × 10^2 PFU/ml. For the same compound, the PFU/ml ([5]; Test #2, .0195 μM, 20 J/cm2, 420 nm) was 4.3 × 10^1 PFU/ml, the PFU/ml ([5]; Test #2, .039 μM, 20 J/cm2, 420 nm) was 9.9 × 10^0 PFU/ml and the PFU/ml ([5]; Test #2, .078 μM, 20 J/cm2, 420 nm) was 0 PFU/ml. For the same compound, the PFU/ml ([5]; Test #2, .156 μM, 20 J/cm2, 420 nm) was 0 PFU/ml, the “kill of HSV-1” value ([5]; as low as 0.0195 mM, 420 nm, 2.5% or less of serum proteins) was over 99.99% and the heavier bands [6] was “many ill separated heavier bands merging together near”. For the same compound, the “Inferred Crosslinked Species” value ([6]; first species) was 2 G-actin, the “Inferred Crosslinked Species” value ([6]; second species) was 3 G-actin and the “Inferred Crosslinked Species, Gel mw” value ([6]; 2 G-actin monomers) was 94 kD. For the same compound, the “Inferred Crosslinked Species, Gel mw” value ([6]; 3 G-actin monomers) was 141 kD, the deformation after separation ([7]; irradiated) was “no plastic deformation” and the “elongation at shearing of the interface” value ([7]; irradiated) was “approximately 50%”. For the same compound, the “total weight at separation of strips” value ([7]; irradiated, approximately 1800 J/cm^2) was 296.3 gm and the “loading at which strips separated immediately” value ([7]; un-irradiated) was at most 33.3 gm.

In the case of `CCCCCCNc1c(Br)cc2c3c(cccc13)C(=O)N(CCCCCC)C2=O` [Compound VII, 3-bromo-4-(hexyl)amino-N-hexyl-1,8-naphthalimide], the viability at 100 µM ([8]; no previous light activation) is reported as 28%, the viability at 100 µM ([8]; previous light activation) is reported as 0% and the “rate constant for oxidation of bound cytochrome c” value [9] is reported as 2 ± 1 s⁻¹.
